What all share (test): NCI-60 cell line screen, 48 h
Experiment [1] relates to SW-620 colon.
The test system of experiment [2] is SNB-78 CNS.
Experiment [3] deals with TK-10 renal.
Experiment [4] concerns NCI-H226 lung.
The test system of experiment [5] is CAKI-1 renal.
Experiment [6] has as its system HOP-92 NSCLC.
In experiment [7] the test system is DMS 273 small cell lung.
Experiment [8] concerns OVCAR-5 ovarian.
Experiment [9] concerns HCT-15 colon.
In experiment [10] the test system is T-47D breast.

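Assay format: 96-well plates, 48-hour exposure. At the GI50, growth is halved. The concentration for full growth arrest is given as TGI.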

Turning to `O=C(CCC(=O)C1Cc2ccccc2C1=O)Nc1cccc(C(F)(F)F)c1` (centres undefined), the TGI in experiment [1], in [2], in experiment [3], in experiment [4], in experiment [5] and in experiment [6] was over 100 µM each time. Besides, the TGI in experiment [7], in [8] and in [9] was over 100 µM each time.
For `O=C1c2ccoc2C(=O)c2oc(=O)ccc21`, the TGI in experiment [1] was 11.5 µM; in experiment [2] it was 42.8 µM; in experiment [3], over 59.1 µM; in [4], over 56.7 µM; in [5], over 62.2 µM; in experiment [6], 39.8 µM. Further, the TGI in [7] was determined as 31.6 µM; in experiment [8] it was 33.9 µM; in experiment [9], 24.9 µM.
On to `O=c1c2cccc3cccc(c4n1CCCN=4)c32`, for which the TGI in [1], in [2], in experiment [3], in experiment [4], in experiment [5] and in experiment [6] was over 100 µM in each case. Further, the TGI in experiment [7], in experiment [8] and in experiment [9] was over 100 µM each time.
On to `Nc1ncnc2sc(Nc3ccccc3)nc12`, for which the TGI in [1], in experiment [2], in [3], in experiment [4], in experiment [5] and in [6] was over 100 µM throughout. Also, the TGI in experiment [7], in [8] and in experiment [9] was over 100 µM each time.
As to `c1ccc2c(c1)[O][Sn][O]2`, the GI50 was 69 µg/mL in experiment [1]; over 150 µg/mL in experiment [2]; 101 µg/mL in experiment [3]; 69.5 µg/mL in [4]; 30.2 µg/mL in experiment [5]; 64.8 µg/mL in experiment [6]. The GI50 in experiment [7] was 10.4 µg/mL; in [8], over 150 µg/mL; in [9] it was 20.6 µg/mL. Further, the TGI in experiment [1], in experiment [2], in experiment [3], in [4], in experiment [5] and in experiment [6] was over 150 µg/mL throughout. Moreover, the TGI in experiment [7], in experiment [8] and in experiment [9] was over 150 µg/mL throughout.
In the case of `CC1(C)CC(O)CC(C)(C)N1.CC1(C)CC(O)CC(C)(C)N1.CC1(C)CC(O)CC(C)(C)N1.CC1(C)CC(O)CC(C)(C)N1.Cl.[Ti]`, the GI50 in [1], in experiment [2], in experiment [3], in [4], in experiment [5] and in experiment [6] was over 100 µM in each case. The GI50 in experiment [7], in experiment [8] and in experiment [9] was over 100 µM throughout. Also, the TGI in experiment [1], in [2], in experiment [3], in experiment [4], in [5] and in experiment [6] was over 100 µM throughout. Besides, the TGI in experiment [7], in experiment [8] and in experiment [9] was over 100 µM each time.
For `O=S(=O)(Cc1ccccc1)SCc1ccccc1`, the TGI in experiment [1] was 15.5 µM; in [2], 48.2 µM; in [3] it was 99.2 µM; in experiment [4], 54.4 µM; in [5] it was over 86.2 µM; in experiment [6], 51.2 µM. In addition, the results for the TGI in experiment [7], in experiment [8] and in experiment [9] were 98.2 µM, over 100 µM and 40.2 µM, respectively.
Take `Nc1nc(-c2ccccc2)cc(-c2cc(Cl)ccc2O)n1`: the TGI in experiment [1], in [2], in [3], in [4], in [5] and in experiment [6] was over 100 µM throughout. The TGI in [7], in [8] and in [9] was over 100 µM in each case.
`Cc1cc2c(cc1C)[n+](=O)c(C(=O)/C=C/c1ccccc1[N+](=O)[O-])c(C)n2[O-]`: the TGI in experiment [1] was over 100 µM; in [10] it was over 100 µM; in experiment [2] it was over 80.9 µM; in experiment [3] it was 69.7 µM; in experiment [4], over 100 µM; in experiment [5], over 97.7 µM. Further, the TGI in experiment [6] is 67.4 µM; in [7], over 94.5 µM; in experiment [8], over 100 µM; in [9], over 100 µM.
As to `CC1=C(C(=O)CC(=O)C(=O)Nc2ccccc2C)Sc2ccccc2N1`, the TGI in experiment [1] is over 54.1 µM; in experiment [2] it was over 100 µM; in [3], over 100 µM; in experiment [4], over 100 µM; in experiment [5], over 100 µM; in experiment [6], over 100 µM. Further, the TGI in [7], in experiment [8] and in [9] was over 100 µM each time.
As to `COc1cc2c(cc1OC)C(SC)C(=O)N(Cc1cccc(OC)c1OC)CC2` (centres undefined), the TGI in [1] was over 100 µM; in experiment [10], 21.2 µM; in [2] it was 5.19 µM; in experiment [3], over 100 µM; in experiment [4] it was 26.8 µM; in [5], over 88.5 µM. In addition, the TGI was 16.9 µM in [6], 12.2 µM in experiment [7], 98.3 µM in experiment [8] and over 74 µM in experiment [9].

The record behind these values is PubChem BioAssay (NCI).
